Experimental data published in publication PMC7311426, “An amphipathic peptide with antibiotic activity against multidrug-resistant Gram-negative bacteria” (Nature Communications, 2020).

Tests used:
E. coli ATCC 25922 = test: NPN uptake assay, outer membrane permeabilization; format: cell-based, Escherichia coli; conditions: Prism nonlinear fit, One site - specific binding with Hill slope, Bmax = 100
E. coli DSA 443 ESBL = test: Murine urinary tract infection (UTI) model; format: in vivo, E. coli in OF-1 mice; conditions: for Day 3 Bladder, Mean Diff. Vehicle vs. Meropenem 40 mg/kg / Day 3 Urine, Mean Diff. Vehicle vs. Meropenem 40 mg/kg: Dunnett's multiple comparisons test; for Day 3 Urine, Mean 2 (group mean) / Mean Diff., Vehicle vs. treated / Mean 2 (group mean bacterial count): Meropenem 40 mg/kg; for Day 3 Urine, Mean 2 (group mean): n2 = 8; for Mean Diff., Vehicle vs. treated / Mean 2 (group mean bacterial count): UTI model, Day 3 Kidneys

SMILES: C[C@@H](O)[C@H]1C(=O)N2C(C(=O)O)=C(S[C@@H]3CN[C@H](C(=O)N(C)C)C3)[C@H](C)[C@H]12 [Meropenem, meropenem, reference compound]
- h (Hill slope, best-fit value) (E. coli ATCC 25922): 0.3497
- Day 3 Bladder, Mean Diff. Vehicle vs. Meropenem 40 mg/kg (E. coli DSA 443 ESBL; Arenicin-3 study): 2.654
- Day 3 Urine, Mean Diff. Vehicle vs. Meropenem 40 mg/kg (E. coli DSA 443 ESBL; Arenicin-3 study): 5.07
- DAY 3 BLADDER, Mean (E. coli DSA 443 ESBL; ESBL E. coli DSA 443, Meropenem 40 mg kg-1, bladder, day 3, Prism column statistics, mean of n = 12): 3.523
- Day 3 Urine, Mean 2 (group mean) (E. coli DSA 443 ESBL; Arenicin-3 study): 1.314
- Day 3 Urine, Mean 2 (group mean) (E. coli DSA 443 ESBL; NZ17143 study): 1.812
- Day 3 Urine, Mean 2 (group mean) (E. coli DSA 443 ESBL; NZ17211 study): 1.325
- Day 3 Bladder, Mean Diff. Vehicle vs. Meropenem 40 mg/kg (E. coli DSA 443 ESBL; NZ17143 study): 2.624
- Day 3 Urine, Mean Diff. Vehicle vs. Meropenem 40 mg/kg (E. coli DSA 443 ESBL; NZ17143 study): 4.004
- Day 3 Bladder, Mean Diff. Vehicle vs. Meropenem 40 mg/kg (E. coli DSA 443 ESBL; NZ17211 study): 4.176
- Day 3 Urine, Mean Diff. Vehicle vs. Meropenem 40 mg/kg (E. coli DSA 443 ESBL; NZ17211 study): 5.546
- Mean Diff., Vehicle vs. treated (E. coli DSA 443 ESBL; Arenicin-3 experiment): 0.4699
- Mean Diff., Vehicle vs. treated (E. coli DSA 443 ESBL; NZ17143 experiment): 0.6355
- Mean Diff., Vehicle vs. treated (E. coli DSA 443 ESBL; NZ17211 experiment): 0.1396
- Mean 2 (group mean bacterial count) (E. coli DSA 443 ESBL; comparator arm of Arenicin-3 experiment): 2.023
- Mean 2 (group mean bacterial count) (E. coli DSA 443 ESBL; comparator arm of NZ17143 experiment): 1.446
- Mean 2 (group mean bacterial count) (E. coli DSA 443 ESBL; comparator arm of NZ17211 experiment): 2.631
